Our source for the Ki, inhibition and Ratio Ki values is ChEMBL document CHEMBL1140434, “1,2,4-Triazolo[1,5-a]quinoxaline as a versatile tool for the design of selective human A3 adenosine receptor antagonists: synthesis, biological evaluation, and molecular modeling studies of 2-(hetero)aryl- and 2-carboxy-substituted derivatives” (J Med Chem, 2005).

Usually Ki stands for a measure of affinity in units of concentration, obtained from inhibition or displacement. A low value points to a stronger hold on the target. Usually inhibition stands for the percentage by which the read-out fell short of the control. Read a high inhibition as a strong effect.

In one test the target is T1, Adenosine receptor A3 (Homo sapiens, UniProt P0DMS8).
T1 sequence (P0DMS8 whole entry): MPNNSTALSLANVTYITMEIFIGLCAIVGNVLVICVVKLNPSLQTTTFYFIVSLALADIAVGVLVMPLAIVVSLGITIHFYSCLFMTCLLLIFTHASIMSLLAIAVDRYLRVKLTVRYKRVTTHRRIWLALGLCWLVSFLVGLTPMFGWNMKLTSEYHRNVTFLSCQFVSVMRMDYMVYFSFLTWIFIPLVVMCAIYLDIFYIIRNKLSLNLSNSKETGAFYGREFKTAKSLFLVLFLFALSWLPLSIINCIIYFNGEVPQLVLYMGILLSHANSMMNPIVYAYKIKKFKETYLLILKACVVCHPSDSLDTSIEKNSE
As to the kind of experiment: Displacement of [125I]AB-MECA from human adenosine A3 receptor expressed in CHO cells. Format: cell-based. A general note: Displacement assays read how much labelled ligand stays bound in the presence of the test substance.

Test [1] concerns the target T2, Adenosine receptor A1 (Bos taurus, UniProt P28190).
T2 sequence (P28190 whole entry): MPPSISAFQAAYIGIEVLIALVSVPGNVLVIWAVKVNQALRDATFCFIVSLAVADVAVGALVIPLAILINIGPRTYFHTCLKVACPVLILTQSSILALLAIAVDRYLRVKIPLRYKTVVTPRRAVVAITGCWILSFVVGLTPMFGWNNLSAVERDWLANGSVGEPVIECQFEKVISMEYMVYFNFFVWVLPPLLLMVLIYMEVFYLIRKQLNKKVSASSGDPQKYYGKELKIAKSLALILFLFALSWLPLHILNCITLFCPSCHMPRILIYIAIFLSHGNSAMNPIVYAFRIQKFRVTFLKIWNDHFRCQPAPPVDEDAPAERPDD
As to the kind of experiment: Displacement of [3H]CHA from adenosine A1 receptor in bovine cerebral cortical membranes. Format: cell membranes.

Test [2] has as its target Adenosine receptor A2a (Homo sapiens) (UniProt P29274). Nature of the test: Percentage inhibition of [3H]NECA binding to cloned human adenosine A2A receptor expressed in CHO cells at 10 uM. Format: cell-based.
The target in test [3] is T3, Adenosine receptor A1 (Homo sapiens, UniProt P30542).
T3 sequence (P30542 whole entry): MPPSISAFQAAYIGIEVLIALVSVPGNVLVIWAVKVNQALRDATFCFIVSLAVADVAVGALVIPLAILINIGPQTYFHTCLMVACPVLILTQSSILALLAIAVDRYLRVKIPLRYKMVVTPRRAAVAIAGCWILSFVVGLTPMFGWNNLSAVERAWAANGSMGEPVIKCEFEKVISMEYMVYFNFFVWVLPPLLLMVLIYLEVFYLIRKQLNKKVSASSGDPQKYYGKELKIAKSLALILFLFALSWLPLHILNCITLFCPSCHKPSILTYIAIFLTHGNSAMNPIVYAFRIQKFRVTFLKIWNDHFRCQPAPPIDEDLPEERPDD
Nature of the test: Displacement of [3H]CHA from cloned human adenosine A1 receptor expressed in CHO cells. Format: cell-based.

Test [4] deals with Adenosine receptor A2a (Bos taurus). Nature of the test: Percentage inhibition of [3H]CGS 21680 binding to adenosine A2A receptor in bovine striatal membranes at 20 uM. The settings on record: Striatum, Membrane.
Test [5] addresses Adenosine receptors; A1 & A3 (Homo sapiens) (UniProt P30542+P0DMS8). As to the kind of experiment: Selectivity for human adenosine A3 receptor over human adenosine A1 receptor. Format: protein assay.
A short description of test [6]: Selectivity for human adenosine A3 receptor over human adenosine A2A receptor.
Test [7] concerns the target T4, Adenosine receptor A1 (Homo sapiens) (UniProt P30542).
T4 sequence (whole entry): T3 sequence (P30542 whole entry)
Nature of the test: Percentage inhibition of [3H]CHA binding to cloned human adenosine A1 receptor expressed in CHO cells at 10 uM. The class given is cell-based.

Test [8] concerns the target T5, Adenosine receptor A1 (Bos taurus) (UniProt P28190).
T5 sequence (whole entry): T2 sequence (P28190 whole entry)
Nature of the test: Percentage inhibition of [3H]CHA binding to adenosine A1 receptor in bovine cerebral cortical membranes at 20 uM. Format: cell membranes.

In test [9] the target is T6, Adenosine receptor A3 (Homo sapiens) (UniProt P0DMS8).
T6 sequence (whole entry): T1 sequence (P0DMS8 whole entry)
As to the kind of experiment: Percentage inhibition of [125I]AB-MECA binding to human adenosine A3 receptor expressed in CHO cells at 1 uM. The class given is cell-based.

Test [10] relates to Adenosine receptor A2a (Bos taurus). Nature of the test: Percentage inhibition of [3H]CGS 21680 binding to adenosine A2A receptor in bovine striatal membranes at 34 uM. The note with it: Striatum, Membrane.
In test [11] the target is T5, Adenosine receptor A1 (Bos taurus). As to the kind of experiment: Percentage inhibition of [3H]CHA binding to adenosine A1 receptor in bovine cerebral cortical membranes at 34 uM. Format: cell membranes.
Test [12] concerns the target Adenosine receptor A2a (Bos taurus). As to the kind of experiment: Displacement of [3H]CGS 21680 from adenosine A2A receptor in bovine striatal membranes.

Sequence of Adenosine receptor A2a (Homo sapiens) (P29274 whole entry): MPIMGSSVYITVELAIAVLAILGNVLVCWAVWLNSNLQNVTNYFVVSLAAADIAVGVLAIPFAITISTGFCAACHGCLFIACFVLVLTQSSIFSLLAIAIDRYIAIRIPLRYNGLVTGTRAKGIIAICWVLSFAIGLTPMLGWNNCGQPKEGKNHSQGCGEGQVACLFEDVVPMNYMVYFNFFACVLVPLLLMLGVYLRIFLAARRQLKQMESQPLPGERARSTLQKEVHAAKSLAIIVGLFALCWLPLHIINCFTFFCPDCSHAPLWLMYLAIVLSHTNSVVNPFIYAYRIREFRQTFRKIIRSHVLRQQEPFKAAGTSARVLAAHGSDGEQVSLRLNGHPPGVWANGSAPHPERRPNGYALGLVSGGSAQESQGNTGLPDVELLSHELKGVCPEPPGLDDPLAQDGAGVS

`O=c1[nH]c2ccc(Cl)cc2n2nc(-c3ccsc3)nc12`: the Ki on Adenosine receptor A3 was 126 nM; at Adenosine receptor A1 [1], 1000 nM.
Molecule `COc1ccc(-c2nc3c(N)nc4ccc(Cl)cc4n3n2)cc1` yielded an inhibition in [2] of 21%. For the same molecule, the Ki at Adenosine receptor A3 is 2.9 nM; at Adenosine receptor A1 [1] it was 150 nM; at Adenosine receptor A1 [3] it was 36 nM.
`O=C(OCc1ccccc1)c1nc2c(O)nc3ccccc3n2n1`: the inhibition is 47% in test [4], 27% in test [2] and 33% in [7]. The figures for the Ki at Adenosine receptor A3 and at Adenosine receptor A1 [1] were 51.6 nM and 3220 nM, respectively. Moreover, the Ratio Ki in [5] and in test [6] was above 200 throughout.
As to `CCOC(=O)c1nc2c(=O)[nH]c3ccc(NC(C)=O)cc3n2n1`, the Ki on Adenosine receptor A3 is 673 nM; at Adenosine receptor A1 [1] it was 14200 nM.
In the case of `CC(C)OC(=O)c1nc2c(O)nc3ccccc3n2n1`, the values for the inhibition in [4] and in test [8] were 2.9% and 0%, respectively. This molecule also yielded a Ki at Adenosine receptor A3 of 420 nM.
Take `Nc1nc2ccc(Cl)cc2n2nc(-c3ccccc3)nc12`: the Ki was 91.4 nM on Adenosine receptor A3 and 50 nM on Adenosine receptor A1 [1].
Consider `Oc1nc2ccccc2n2ncnc12`, for which the inhibition in test [4] was 20%; in test [9], 53%; in [8], 29%.
`CCOC(=O)c1nc2c(O)nc3cc(N)ccc3n2n1`: the inhibition in test [4] was found to be 9%; in test [8], 43%.
As for `CCOC(=O)c1nc2c(=O)n(C(=O)OCC)c3ccccc3n2n1`, the inhibition in test [4] is 4%; in test [2] it was 9%; in [8], 14%; in test [7] it was 12%. The Ki at Adenosine receptor A3 came to 28.2 nM. Further, the Ratio Ki in test [5] and in test [6] was above 350 throughout.
On to `CCOC(=O)c1nc2c(=O)n(O)c3ccccc3n2n1`, for which the values for the inhibition in test [9], in test [10] and in test [11] were 20%, 2% and 6.9%, respectively.
In the case of `Oc1nc2ccccc2n2nc(-c3ccco3)nc12`, the Ki was determined as 33 nM on Adenosine receptor A3 and 1930 nM at Adenosine receptor A1 [3].
Consider `CCOC(=O)c1nc2c(O)nc3ccc(N)cc3n2n1`, for which the inhibition is 32.7% in [4], 22% in [2], 64% in test [8] and 33% in test [7]. Besides, the Ki on Adenosine receptor A3 amounted to 25 nM. Besides, the Ratio Ki in test [5] and in [6] was above 400 throughout.
As to `O=c1[nH]c2ccccc2n2nc(-c3ccccc3)nc12`, the Ki amounted to 396 nM at Adenosine receptor A3 and 268 nM at Adenosine receptor A1 [1].
Consider `CCOC(=O)c1nc2c(O)nc3cc(Cl)ccc3n2n1`, for which the inhibition in test [4] is 15.2%; in [8], 48%. At Adenosine receptor A3, this molecule showed an inhibition constant Ki of 340 nM.
Take `Oc1nc2ccc(Cl)cc2n2nc(-c3ccoc3)nc12`: the figures for the Ki on Adenosine receptor A3, at Adenosine receptor A1 [1] and on Adenosine receptor A1 [3] were 78 nM, 1950 nM and 125 nM, respectively. Also, the Ratio Ki in test [5] stood at 1.6. The molecule also had an inhibition in test [10] of 25.3%.
As for `NC(=O)c1nc2c(O)nc3ccccc3n2n1`, the inhibition came out at 17% in [4], 32% in [9] and 15% in test [8].
In the case of `COc1ccc(-c2nc3c(O)nc4ccc(C)cc4n3n2)cc1`, the Ki turned out to be 2.5 nM on Adenosine receptor A3, 1440 nM at Adenosine receptor A1 [1] and 2.86 nM on Adenosine receptor A1 [3]. Further, the Ratio Ki in test [5] was 1.1. In test [10], this molecule yielded an inhibition of 5%.
With `CCOC(=O)c1nc2c(=O)[nH]c3ccc(Cl)cc3n2n1`, the affinity at Adenosine receptor A3, expressed as Ki, was 557 nM.
On to `CCOC(=O)c1nc2c(=O)n(C)c3ccc(Cl)cc3n2n1`, for which the inhibition in [4] stood at 0%; in [9] it was 60%; in test [8] it was 8%.
As to `CCOC(=O)c1nc2c(O)nc3ccc(C)cc3n2n1`, the inhibition in [4] was found to be 6.5%; in test [8], 41%.
`O=C(NCc1ccccc1)c1nc2c(O)nc3ccccc3n2n1` came in with an inhibition in test [4] of 27%. Further, in test [5], the Ratio Ki stood at 2.5.
Regarding `COc1ccc(-c2nc3c(=O)[nH]c4ccc(Cl)cc4n3n2)cc1`, the Ki was 25.8 nM at Adenosine receptor A3, 1060 nM on Adenosine receptor A1 [1] and 3.29 nM at Adenosine receptor A1 [3].
For the molecule `CCOC(=O)c1nc2c(=O)[nH]c3cc(N)ccc3n2n1`, the Ki at Adenosine receptor A3 is 354 nM.
In the case of `O=C(NCc1ccccc1)c1nc2c(=O)[nH]c3ccccc3n2n1`, the results for the Ki at Adenosine receptor A3, on Adenosine receptor A1 [1] and at Adenosine receptor A1 [3] were 82 nM, 578 nM and 205 nM, respectively.
As to `Cc1ccc2nc(O)c3nc(-c4ccccc4)nn3c2c1`, the inhibition in [4] worked out at 25%.
For `CCOC(=O)c1nc2c(=O)[nH]c3ccc(C)cc3n2n1`, the Ki at Adenosine receptor A3 was 108 nM.
In the case of `CCOC(=O)c1nc2c(N)nc3ccc(Cl)cc3n2n1`, the inhibition constant Ki worked out at 4900 nM in test [12] and 5 nM at Adenosine receptor A1 [1]. This molecule registered an inhibition in test [9] of 15%.
As for `CCOC(=O)c1nc2c(O)nc3ccc(Cl)cc3n2n1`, the inhibition in [8] was determined as 20%; in test [10] it was 7%.
Take `Cc1ccc2c(c1)n1nc(-c3ccccc3)nc1c(=O)n2C`: the results for the Ki on Adenosine receptor A3 and at Adenosine receptor A1 [1] were 308 nM and 508 nM, respectively.
Consider `CCOC(=O)c1nc2c(=O)n(CC)c3ccccc3n2n1`, for which the inhibition in test [9] is 0%; in [10], 20.5%; in test [11] it was 13.3%.
As to `CCOC(=O)c1nc2c(O)nc3ccccc3n2n1`, the inhibition was 3.6% in [4], 0% in [2], 26% in test [8] and 5% in test [7]. On Adenosine receptor A3, this molecule registered a Ki of 70.8 nM. The Ratio Ki in [5] and in test [6] was above 150 each time.
In the case of `Cn1c(=O)c2nc(-c3ccccc3)nn2c2cc(Cl)ccc21`, the figures for the inhibition in test [4], in test [9] and in test [8] were 0%, 19% and 18%, respectively.
As for `Oc1nc2ccccc2n2nc(-c3cccs3)nc12`, the Ki at Adenosine receptor A3 amounted to 2 nM; at Adenosine receptor A1 [1] it was 2940 nM; on Adenosine receptor A1 [3], 2 nM. Besides, in test [5], the Ratio Ki worked out at 1. The inhibition in [10] was 54%.
`CCOC(=O)c1nc2c(=O)n(C)c3ccccc3n2n1`: at Adenosine receptor A3, the affinity, expressed as Ki, was 820 nM. The molecule also registered an inhibition in test [8] of 6.4%.
Molecule `Oc1nc2ccc(Cl)cc2n2nc(-c3cccs3)nc12` displayed an inhibition in test [11] of 54.2%.
Regarding `COc1ccc(-c2nc3c(O)nc4ccccc4n3n2)cc1`, the inhibition was 49% in [2], 0% in [11] and 32% in test [7].
For the molecule `Oc1nc2ccccc2n2nc(-c3ccccc3)nc12`, the inhibition in test [4] is 7%.
In the case of `Oc1nc2ccc(Cl)cc2n2ncnc12`, the results for the inhibition in test [4], in test [9] and in test [8] were 23%, 18.8% and 0%, respectively.
Turning to `O=c1[nH]c2ccc(Cl)cc2n2nc(-c3cccs3)nc12`, the Ki at Adenosine receptor A3 was found to be 257 nM.
As for `Cn1c(=O)c2nc(-c3ccccc3)nn2c2ccccc21`, the inhibition in test [4] worked out at 8.8%; in test [9], 30%. At Adenosine receptor A1 [1], this molecule displayed a Ki of 1080 nM.
Consider `Cn1c(=O)c2ncnn2c2cc(Cl)ccc21`, for which the inhibition was found to be 8.9% in test [4], 0% in test [9] and 11% in [8].
For the molecule `O=C(O)c1nc2c(O)nc3ccccc3n2n1`, the inhibition was found to be 6.4% in test [9], 0% in test [10] and 10% in test [11].
With `Oc1nc2ccc(Cl)cc2n2nc(-c3ccccc3)nc12`, the Ki at Adenosine receptor A3 was found to be 163 nM; at Adenosine receptor A1 [1], 2400 nM.
For the molecule `Cc1ccc2[nH]c(=O)c3nc(-c4ccccc4)nn3c2c1`, the Ki on Adenosine receptor A3 was 111 nM; on Adenosine receptor A1 [1], 525 nM.
